In the OPERA property sets (Mansouri et al. 2018):
Converted amounts (≈) assume the structure as drawn.

For `CCCOc1ccc([N+](=O)[O-])cc1NC(C)=O`, the logP was 1.6.
`COC(=O)C(c1ccccc1)C(C)C` (centres undefined) showed a logP of 3.33.
`CC(C)=CC1C(C(=O)OCc2coc(Cc3ccccc3)c2)C1(C)C` (centres undefined) gave a logP of 6.14.
`ClC=C1C2CC(C(Cl)C2(Cl)Cl)C1(CCl)CCl` (centres undefined) showed a logP of 5.2.
`Cc1cc(Cc2ccc(Cl)c(Cl)c2)c(Cl)cc1Cl` gave a logP of 7.26.
With `CC1=CCC(=C(C)C)CC1` the logP was 4.47.
`O=c1ccn(C2OC(CO)C(O)C2O)c(=O)n1Cc1ccccc1` (centres undefined) gave a logP of 0.33.
Work on `Cn1c(CC(=O)O)cnc1C(=O)c1ccc([N+](=O)[O-])cc1` yielded a logP of 0.86.
Compound `Cc1cc(Cl)c(Cl)cc1Cc1ccc(Cl)cc1Cl` has a logP of 7.41.
In the case of `O=C(O)c1cc(Oc2ccc(C(F)(F)F)cc2Cl)ccc1[N+](=O)[O-]`, the logP is reported as 3.7.
`Cc1ccc2c(ccc3ccccc32)c1` gave a logP of 4.86.
With `CC(=O)Oc1ccc(OCCN(C)C)cc1C` the logP was 1.64.
`OCc1c(F)cccc1F` gave a logP of 1.12.
`Nc1ccc(C=Cc2ccc(N)cc2S(=O)(=O)O)c(S(=O)(=O)O)c1` gave a logP of -1.7.
Compound `COc1nc(NC(C)C)nc(NC(C)C)n1` has a logP of 2.99.
In the case of `COc1ccc2c3c1O[C@H]1[C@@H](O)C=C[C@H]4[C@@H](C2)NCC[C@@]341`, the logP is reported as 0.69.
`O=C1c2cc([N+](=O)[O-])ccc2-c2ccc([N+](=O)[O-])cc21` showed a logP of 2.84.
With `CN(C(=O)C(Cl)Cl)c1ccc(OC(=O)c2ccccc2)cc1` the logP was 2.56.
In the case of `CC(C)c1ccc(C=[N+]([O-])c2ccccc2)cc1`, the logP is reported as 3.37.
For `O=C(O)CCCCc1ccccc1`, the logP was 2.94.
In the case of `Clc1cc(Cl)c(Oc2ccccc2)cc1Cl`, the logP is reported as 5.44.
In the case of `Fc1ccc(Cn2cncn2)cc1`, the logP is reported as 1.1.
Work on `CN1CC(C(=O)O)CC1=O` (centres undefined) yielded a logP of -1.5.
In the case of `O=C(O)CN(CC(=O)O)Cc1cc2c(c(O)c1O)C(=O)c1ccccc1C2=O`, the solubility is reported as 15600 µM (≈ 6000 µg/mL).
In the case of `Cc1c(Cl)cc(C(C)C)c(Cl)c1Cl`, the logP is reported as 6.2.
Compound `ClC1=CC2(Cl)C3C(Cl)C(Cl)C(Cl)C3C1(Cl)C2(Cl)Cl` (centres undefined) has a logP of 5.91.
For `C1=C(c2ccccc2)CCNC1`, the logP was 1.99.
In the case of `NS(=O)(=O)c1cc2c(cc1C(F)(F)F)NC(Cc1ccccc1)NS2(=O)=O` (centres undefined), the logP is reported as 1.89.
`CCCCCCCCC(=O)OC` gave a logP of 4.32.
In the case of `C=CC(N)CCC(=O)O` (centres undefined), the logP is reported as -2.16.
With `C[C@@H]1CC[C@H](C)O1` the logP was 1.22.
With `OCc1ccc(F)cc1` the logP was 1.36.
`Nc1cc2ccccc2cc1N` showed a logP of 1.54.
For `CCc1c(O)c(=O)ccn1C`, the logP was -0.2.
With `CC(C)OC(=O)c1cc(=O)[nH]c(=O)[nH]1` the logP was 0.81.
`CC(=O)OCN1C(=O)C2CC=CCC2C1=O` (centres undefined) gave a logP of 0.97.
For `CCCNC(=O)CCC(NS(=O)(=O)c1ccccc1)C(=O)O` (centres undefined), the logP was 0.01.
Compound `O=C(O)COc1cccc2ccccc12` has a logP of 2.6.
`O=[N+]([O-])c1cc(N(CCO)CCO)ccc1NCCO` gave a logP of 1.7.
`CCn1cc(C(=O)O)c(=O)c2cc(F)c(N3CCNC(C)C3)cc21` (centres undefined) gave a logP of 0.34.
For `CCCCOC(=O)c1ccccc1C(=O)OCc1ccccc1`, the logP was 4.73.
With `CNC(=O)CCc1c[nH]c2ccccc12` the logP was 1.23.
Compound `COP(=S)(OC)Oc1c(Cl)cccc1C#N` has a logP of 3.58.
Compound `ClC1=C(Cl)C(Cl)(Cl)C(Cl)(Cl)C1(Cl)Cl` has a solubility of 0.291 µM (≈ 0.1 µg/mL).
With `CC(=O)OC1CCC(C(C)(C)C)CC1` (centres undefined) the logP was 4.8.
Compound `N=C(N)NN=C(c1ccccc1)c1cccs1` has a logP of 1.96.
In the case of `CCOC(=O)CNC(=O)c1cn(CC)c2nc(C)ccc2c1=O`, the logP is reported as 2.07.
Compound `CC(CCC(=O)NCC(=O)O)C1CCC2C3C(O)CC4CC(O)CCC4(C)C3CCC12C` (centres undefined) has a logP of 2.12.
`C=CCOc1ccccc1OCC(CNC(C)C)OC(=O)CC` (centres undefined) showed a logP of 3.76.
Compound `CCOP(=S)(OCC)Oc1ccc(N)cc1` has a solubility of 1490 µM (≈ 390 µg/mL).
`CC1=CCC(C(C)C)=CC1` showed a logP of 4.5.
For `OC[C@@H]1C[C@H](F)[C@H](n2cnc3cncnc32)O1`, the logP was -0.4.
Compound `CCCCSP(=O)(SCCCC)SCCCC` has a logP of 5.7.
Work on `Clc1ccc2cc(Cl)c(Cl)cc2c1` yielded a logP of 5.12 and a solubility of 0.0721 µM (≈ 0.0167 µg/mL).
In the case of `NS(=O)(=O)c1nn2c(=Nc3ccccc3)snc2s1`, the logP is reported as 2.57.
Compound `NS(=O)(=O)c1nc2ccc([N+](=O)[O-])cc2s1` has a logP of 1.36.
`C[Si](C)(C)O[Si](C)(C)O[Si](C)(C)O[Si](C)(C)C` showed a logP of 8.21.
Work on `CCNc1nc(NCC)nc(SC)n1` yielded a logP of 2.8.
For `NC(=S)NN=Cc1ccc([N+](=O)[O-])o1`, the logP was 1.64.
For `COc1ccc(Oc2ccc(NC(=O)N(C)C)cc2)cc1`, the logP was 2.54.
Work on `C=CCCCCCCCC` yielded a logP of 5.7.
Work on `CCCCC(OC(Cc1ccccc1)C(=O)N1CCC(OCOC)CC1)C(=O)NC(CC1CCCCC1)C(O)CC(C(=O)NCCNc1n[nH]c(N)n1)C(C)C` (centres undefined) yielded a logP of 4.
`Cc1ccccc1OCCNc1ccccc1C(N)=O` gave a logP of 2.94.
`ClC1=C(Cl)C2(Cl)C3C(Cl)C=CC3C1(Cl)C2(Cl)Cl` (centres undefined) gave a logP of 6.1.
Work on `Clc1cccc2ccccc12` yielded a logP of 4.
`C=CCOc1ccccc1OCC(CNC(C)C)OC(=O)C(C)C` (centres undefined) gave a logP of 3.77.
For `CCCCCCCCC1(CC)C(=O)NC(=O)NC1=O`, the logP was 3.78.
Compound `COc1ccc(Cn2cncn2)cc1` has a logP of 1.1.
In the case of `O=[N+]([O-])c1c(Cl)cc(Cl)cc1Cl`, the logP is reported as 3.69.
`CCOC(=O)C1CNC(=O)CC1C(=O)OCC` (centres undefined) showed a logP of -0.03.
`CCOC(=O)C1=C(COCCN)NC(C)=C(C(=O)OC)C1c1ccccc1Cl` (centres undefined) showed a logP of 3.
`N[C@@H](Cc1ccc(O)c(O)c1)C(=O)OC1CCCCC1` showed a logP of 1.79.
Compound `CC(=O)Nc1ncc2ncn(COCCOC(C)=O)c2n1` has a logP of -1.05.
`Cc1ccc2oc(N(N)CCC#N)nc2c1` showed a logP of 1.48.
Work on `c1ccc2c(c1)ccc1c3ccccc3ccc21` yielded a logP of 5.81.
In the case of `CCCOC(=O)c1cc(=O)[nH]c(=O)[nH]1`, the logP is reported as 1.1.
For `CNc1nc(C)nc(C(Cl)(Cl)Cl)n1`, the logP was 2.43.
Work on `CC(=O)OCCC(C)C` yielded a logP of 2.25.
